Data from ChEMBL document CHEMBL6096734, “Design, Synthesis and Anti-Inflammatory Evaluation of 3-Substituted 5-Amidobenzoate Derivatives as Novel P2Y14 Receptor Antagonists via Structure-Guided Molecular Hybridization” (J Med Chem, 2025).
Activity calls are given as the source filed them. The calls are words filed in the database; no cut-off is given here.

What was measured:
[1] = target: T1, P2Y purinoceptor 14 (Homo sapiens) (UniProt Q15391); conditions: time 30.0 min
T1 sequence (whole entry): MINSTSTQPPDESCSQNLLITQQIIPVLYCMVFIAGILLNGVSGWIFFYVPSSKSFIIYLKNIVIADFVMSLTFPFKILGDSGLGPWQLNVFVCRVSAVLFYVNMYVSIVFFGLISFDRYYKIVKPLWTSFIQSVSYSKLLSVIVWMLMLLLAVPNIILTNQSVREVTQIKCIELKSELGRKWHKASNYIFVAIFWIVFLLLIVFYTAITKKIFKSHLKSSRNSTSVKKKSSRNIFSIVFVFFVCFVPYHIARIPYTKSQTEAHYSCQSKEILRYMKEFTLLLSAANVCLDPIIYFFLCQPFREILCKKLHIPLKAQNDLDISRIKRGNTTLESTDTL

[2] = test system: Mus musculus; experiment: Anti-inflammatory activity in LPS-induced male C57BL/6 mouse model of acute […] injury assessed as reduction of lung edema at 2 mg/kg measured after 7 days by H and E staining based analysis; type: functional, organism-based; conditions: time 7.0 day
[3] = test system: Mus musculus; experiment: Anti-inflammatory activity in LPS-induced male C57BL/6 mouse model of acute […] injury assessed as reduction of intravascular congestion at 2 mg/kg measured after 7 days by H and E staining based analysis; type: functional, organism-based; conditions: time 7.0 day
[4] = test system: Mus musculus; experiment: Anti-inflammatory activity in LPS-induced male C57BL/6 mouse model of acute […] injury assessed as reduction of interstitial hemorrhage at 2 mg/kg measured after 7 days by H and E staining based analysis; type: functional, organism-based; conditions: time 7.0 day
[5] = test system: Mus musculus; experiment: Anti-inflammatory activity in LPS-induced male C57BL/6 mouse model of acute […] injury assessed as reduction of neutrophil infiltration at 2 mg/kg measured after 7 days by H and E staining based analysis; type: functional, organism-based; conditions: time 7.0 day
[6] = test system: Mus musculus; experiment: Anti-inflammatory activity in LPS-induced male C57BL/6 mouse model of acute […] injury assessed as alveolar wall thickening at 2 mg/kg measured after 7 days by H and E staining based analysis; type: functional, organism-based; conditions: time 7.0 day
[7] = test system: Mus musculus; experiment: Anti-inflammatory activity in LPS-induced male C57BL/6 mouse model of acute […] injury assessed as appearance of tight junction integrity at 2 mg/kg measured after 7 days by ZO-1 staining based immunofluorescence analysis; type: functional, organism-based; conditions: time 7.0 day
[8] = test system: Mus musculus; experiment: Anti-inflammatory activity in LPS-induced male C57BL/6 mouse model of acute […] injury assessed as reduction in Wet/dry weight ratio at 2 mg/kg measured after 7 days; type: functional, organism-based; conditions: time 7.0 day
[9] = test system: Mus musculus; experiment: Anti-inflammatory activity in LPS-induced male C57BL/6 mouse model of acute […] injury assessed as decrease in total WBC count in BALF at 2 mg/kg measured after 7 days; type: functional, organism-based; conditions: time 7.0 day
[10] = test system: Mus musculus; experiment: Anti-inflammatory activity in LPS-induced male C57BL/6 mouse model of acute […] injury assessed as decrease in neutrophil count in BALF at 2 mg/kg measured after 7 days; type: functional, organism-based; conditions: time 7.0 day
[11] = test system: Mus musculus; experiment: Anti-inflammatory activity in LPS-induced male C57BL/6 mouse model of acute […] injury assessed as decrease in lymphocyte count in BALF at 2 mg/kg measured after 7 days; type: functional, organism-based; conditions: time 7.0 day
[12] = test system: Mus musculus; experiment: Anti-inflammatory activity in LPS-induced male C57BL/6 mouse model of acute […] injury assessed as decrease in monocyte count in BALF at 2 mg/kg measured after 7 days; type: functional, organism-based; conditions: time 7.0 day
[13] = test system: Mus musculus; experiment: Anti-inflammatory activity in LPS-induced male C57BL/6 mouse model of acute […] injury assessed as decrease MPO level at 2 mg/kg measured after 7 days; type: functional, organism-based; conditions: time 7.0 day
[14] = test system: Mus musculus; experiment: Anti-inflammatory activity in LPS-induced male C57BL/6 mouse model of acute […] injury assessed as decrease NE level at 2 mg/kg measured after 7 days; type: functional, organism-based; conditions: time 7.0 day
[15] = test system: Mus musculus; experiment: Anti-inflammatory activity in LPS-induced male C57BL/6 mouse model of acute […] injury assessed as decrease dsDNA formation at 2 mg/kg measured after 7 days; type: functional, organism-based; conditions: time 7.0 day
[16] = test system: Mus musculus; experiment: Anti-inflammatory activity in LPS-induced male C57BL/6 mouse model of acute […] injury assessed as decrease in IL-1 beta level at 2 mg/kg measured after 7 days; type: functional, organism-based; conditions: time 7.0 day
[17] = test system: Mus musculus; experiment: Anti-inflammatory activity in LPS-induced male C57BL/6 mouse model of acute […] injury assessed as decrease in IL-6 level at 2 mg/kg measured after 7 days; type: functional, organism-based; conditions: time 7.0 day
[18] = test system: Mus musculus; experiment: Anti-inflammatory activity in LPS-induced male C57BL/6 mouse model of acute […] injury assessed as decrease in TNF-alpha level at 2 mg/kg measured after 7 days; type: functional, organism-based; conditions: time 7.0 day
[19] = test system: Mus musculus; experiment: Anti-inflammatory activity in LPS-induced male C57BL/6 mouse model of acute […] injury assessed as decrease in F4/80+ macrophage in lung tissue at 2 mg/kg measured after 7 days by immunofluorescence analysis; type: functional, organism-based; conditions: time 7.0 day
[20] = test system: Mus musculus; experiment: Anti-inflammatory activity in LPS-induced male C57BL/6 mouse model of acute […] injury assessed as decrease in Ly6G+ neutrophils in lung tissue at 2 mg/kg measured after 7 days by immunofluorescence analysis; type: functional, organism-based; conditions: time 7.0 day
[21] = test system: Mus musculus; experiment: Anti-inflammatory activity in LPS-induced male C57BL/6 mouse model of acute […] injury assessed as decrease in CXCL1 mRNA expression in lung at 2 mg/kg measured after 7 days by qPCR analysis; type: functional, organism-based; conditions: time 7.0 day
[22] = test system: Mus musculus; experiment: Anti-inflammatory activity in LPS-induced male C57BL/6 mouse model of acute […] injury assessed as decrease in CCL2 mRNA expression in lung at 2 mg/kg measured after 7 days by qPCR analysis; type: functional, organism-based; conditions: time 7.0 day
[23] = test system: Mus musculus; experiment: Anti-inflammatory activity in LPS-induced male C57BL/6 mouse model of acute […] injury assessed as decrease CXCL9 mRNA expression in lung at 2 mg/kg measured after 7 days by qPCR analysis; type: functional, organism-based; conditions: time 7.0 day
[24] = test system: Mus musculus; experiment: Anti-inflammatory activity in LPS-induced male C57BL/6 mouse model of acute […] injury assessed as decrease in CXCL10 mRNA expression in lung at 2 mg/kg measured after 7 days by qPCR analysis; type: functional, organism-based; conditions: time 7.0 day
[25] = test system: Mus musculus; experiment: Anti-inflammatory activity in LPS-induced male C57BL/6 mouse model of acute […] injury assessed as decrease in CXCL1 level in serum at 2 mg/kg measured after 7 days by ELISA method; type: functional, organism-based; conditions: time 7.0 day
[26] = test system: Mus musculus; experiment: Anti-inflammatory activity in LPS-induced male C57BL/6 mouse model of acute […] injury assessed as decrease in CCL2 level in serum at 2 mg/kg measured after 7 days by ELISA method; type: functional, organism-based; conditions: time 7.0 day
[27] = test system: Mus musculus; experiment: Anti-inflammatory activity in LPS-induced male C57BL/6 mouse model of acute […] injury assessed as decrease in NLRP3 expression at 2 mg/kg measured after 7 days; type: functional, organism-based; conditions: time 7.0 day
[28] = test system: Mus musculus; experiment: Anti-inflammatory activity in LPS-induced male C57BL/6 mouse model of acute […] injury assessed as decrease in GSDMD-N expression at 2 mg/kg measured after 7 days; type: functional, organism-based; conditions: time 7.0 day
[29] = test system: Mus musculus; experiment: Anti-inflammatory activity in LPS-induced male C57BL/6 mouse model of acute […] injury assessed as decrease in ASC expression at 2 mg/kg measured after 7 days; type: functional, organism-based; conditions: time 7.0 day
[30] = test system: Mus musculus; experiment: Anti-inflammatory activity in LPS-induced male C57BL/6 mouse model of acute […] injury assessed as decrease in caspase-1 expression at p20 subunit at 2 mg/kg measured after 7 days; type: functional, organism-based; conditions: time 7.0 day
[31] = test system: Mus musculus; experiment: Anti-inflammatory activity in LPS-induced male C57BL/6 mouse model of acute […] injury assessed as decrease in caspase-1 expression at p10 subunit at 2 mg/kg measured after 7 days; type: functional, organism-based; conditions: time 7.0 day
[32] = target: T2, P2Y purinoceptor 14 (Homo sapiens, UniProt Q15391); experiment: Antagonist activity at human P2Y14R stably expressed in HEK293 cells assessed as inhibition of UDPG-induced cAMP accumulation at 100 nM incubated for 30 mins in presence of forskolin by cAMP-Glo assay relative to control; type: functional, cell-based
T2 sequence (Q15391 whole entry): T1 sequence (whole entry)

[33] = HEK293, filed as antagonist, dose 100.0 nM

COC(=O)c1cc(NC(=O)Cc2cccs2)cc(-c2nc3ccccc3o2)c1
inhibition ([1]; HEK293, dose 100.0 nM): 36.5%

COC(=O)c1cc(NC(=O)Cn2cncn2)cc(-c2nc3ccccc3o2)c1
inhibition [1, 33]: 41.5%

C[C@@H]1C[C@H]2[C@@H]3CCC4=CC(=O)C=C[C@]4(C)[C@@]3(F)[C@@H](O)C[C@]2(C)[C@@]1(O)C(=O)CO
Activity [2]: Active
Activity [3]: Active
Activity [4]: Active
Activity [5]: Active
Activity [6]: Active
Activity [7]: Active
Activity [8]: Active
Activity [9]: Active
Activity [10]: Active
Activity [11]: Active
Activity [12]: Active
Activity [13]: Active
Activity [14]: Active
Activity [15]: Active
Activity [16]: Active
Activity [17]: Active
Activity [18]: Active
Activity [19]: Active
Activity [20]: Active
Activity [21]: Active
Activity [22]: Active
Activity [23]: Active
Activity [24]: Active
Activity [25]: Active
Activity [26]: Active
Activity [27]: Active
Activity [28]: Active
Activity [29]: Active
Activity [30]: Active
Activity [31]: Active

COC(=O)c1cc(NC(=O)Cc2ccc(C)c(C)c2)cc(-c2nc3ccccc3o2)c1
inhibition ([1]; HEK293, dose 100.0 nM): 34.5%

COc1ccc(CC(=O)Nc2cc(C(=O)O)cc(-c3nc4ccccc4o3)c2)cc1
inhibition [1, 33]: 48%

COC(=O)c1cc(NC(=O)Cc2ccc(-n3cccc3)cc2)cc(-c2nc3ccccc3o2)c1
inhibition ([1]; HEK293, dose 100.0 nM): 32.3%

COC(=O)c1cc(NC(=O)Cc2ccc(C)cc2)cc(-c2nc3ccccc3s2)c1
inhibition ([1]; HEK293, dose 100.0 nM): 34.7%

O=C(Cn1cncn1)Nc1cc(C(=O)O)cc(-c2nc3ccccc3o2)c1
inhibition ([1]; HEK293, dose 100.0 nM): 38.3%

N#Cc1ccc(CC(=O)Nc2cc(C(=O)O)cc(-c3nc4ccccc4o3)c2)cc1
inhibition [1, 33]: 46.1%

O=C(Cc1ccc(-n2cccc2)cc1)Nc1cc(C(=O)O)cc(-c2nc3ccccc3o2)c1
inhibition ([1]; HEK293, dose 100.0 nM): 24.2%

O=C(Cc1ccc(Br)cc1)Nc1cc(C(=O)O)cc(-c2nc3ccccc3o2)c1
inhibition ([1]; HEK293, dose 100.0 nM): 20.9%

O=C(Cc1ccccc1)Nc1cc(C(=O)O)cc(-c2nc3ccccc3o2)c1
inhibition ([1]; HEK293, dose 100.0 nM): 35.2%

COC(=O)c1cc(NC(=O)Cc2ccc(C)cc2C)cc(-c2nc3ccccc3o2)c1
inhibition [1, 33]: 42.3%

COC(=O)c1cc(NC(=O)Cc2ccc(F)cc2)cc(-c2nc3ccccc3o2)c1
inhibition ([1]; HEK293, dose 100.0 nM): inactive

O=C(Cn1cccc1)Nc1cc(C(=O)O)cc(-c2nc3ccccc3o2)c1
inhibition [1, 33]: 43.2%

COC(=O)c1cc(NC(=O)Cc2ccc(OC)cc2)cc(-c2nc3ccccc3o2)c1
inhibition ([1]; HEK293, dose 100.0 nM): 39.3%

COC(=O)c1cc(NC(=O)Cn2cccc2)cc(-c2nc3ccccc3o2)c1
inhibition ([1]; HEK293, dose 100.0 nM): 26.3%

COC(=O)c1cc(NC(=O)Cc2ccccc2)cc(-c2nc3ccccc3o2)c1
inhibition [1, 33]: 48.6%

O=C(Cc1cccs1)Nc1cc(C(=O)O)cc(-c2nc3ccccc3o2)c1
inhibition ([1]; HEK293, dose 100.0 nM): 39.8%

Cc1ccc(CC(=O)Nc2cc(C(=O)NCCOCCOCCOCCNC(=O)CCCC[C@H]3SC[C@H]4NC(=O)N[C@H]43)cc(-c3nc4ccccc4[nH]3)c2)cc1
IC50 [32]: 0.84 nM

O=C(Cc1ccc(F)cc1)Nc1cc(C(=O)O)cc(-c2nc3ccccc3o2)c1
inhibition ([1]; HEK293, dose 100.0 nM): 30.8%

O=C(Cc1ccc(C(F)(F)F)cc1)Nc1cc(C(=O)O)cc(-c2nc3ccccc3o2)c1
inhibition ([1]; HEK293, dose 100.0 nM): 23.1%
